Test results: patent US10683297B2 (Sunshine Lake Pharma Co., Ltd., priority 2017, dated 2020)

Tests used:
JAK2 (h) = target: T1, JAK2 (h) (Homo sapiens, UniProt O60674); test: JAK2 (h) kinase assay; assay type: biochemical; settings: [γ-33P-ATP] 10 μM or KM values; 40 minutes at room temperature
T1 construct: purchased Millipore UK Ltd (assays performed there as a service)
Method in brief: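 Radiometric filter-binding assay run at Millipore: human JAK2 with 100 μM peptide substrate in 8 mM MOPS pH 7.0, 0.2 mM EDTA, 10 mM MgAcetate, [γ-^33P]ATP at 10 μM or KM, 40 min at room temperature. Acid-stopped, spotted on P30 filtermat, scintillation counted; IC50 from 10-point ½-log curve.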

[1] = Compound stability in human liver microsomes; assay type: in vitro ADME; settings: for half-life at 5 μM: human liver microsomes 0.5 mg protein/mL, compound 5 μM, NADPH 1.0 mM, pH 7.4, 37° C., read-out: Human T1/2; for CLint scaled at 5 μM: liver microsomes, pH 7.4, in vivo CLint extrapolated from human liver microsome incubation
Method in brief: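 Compounds (5 μM) incubated at 37 °C with human or rat liver microsomes (0.5 mg protein/mL) and 1.0 mM NADPH in 100 mM phosphate buffer pH 7.4, 0.05% DMSO, in duplicate. Sampled 0–60 min, quantified by LC/MS/MS as % of time zero; CLint extrapolated.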

JAK1 (h) = target: T2, JAK1 (h) (Homo sapiens, UniProt P23458); test: JAK1 (h) kinase assay; assay type: biochemical; settings: [γ-33P-ATP] 10 μM or KM values; 40 minutes at room temperature
T2 construct: purchased Millipore UK Ltd (assays performed there as a service)
T2 sequence (P23458 whole entry): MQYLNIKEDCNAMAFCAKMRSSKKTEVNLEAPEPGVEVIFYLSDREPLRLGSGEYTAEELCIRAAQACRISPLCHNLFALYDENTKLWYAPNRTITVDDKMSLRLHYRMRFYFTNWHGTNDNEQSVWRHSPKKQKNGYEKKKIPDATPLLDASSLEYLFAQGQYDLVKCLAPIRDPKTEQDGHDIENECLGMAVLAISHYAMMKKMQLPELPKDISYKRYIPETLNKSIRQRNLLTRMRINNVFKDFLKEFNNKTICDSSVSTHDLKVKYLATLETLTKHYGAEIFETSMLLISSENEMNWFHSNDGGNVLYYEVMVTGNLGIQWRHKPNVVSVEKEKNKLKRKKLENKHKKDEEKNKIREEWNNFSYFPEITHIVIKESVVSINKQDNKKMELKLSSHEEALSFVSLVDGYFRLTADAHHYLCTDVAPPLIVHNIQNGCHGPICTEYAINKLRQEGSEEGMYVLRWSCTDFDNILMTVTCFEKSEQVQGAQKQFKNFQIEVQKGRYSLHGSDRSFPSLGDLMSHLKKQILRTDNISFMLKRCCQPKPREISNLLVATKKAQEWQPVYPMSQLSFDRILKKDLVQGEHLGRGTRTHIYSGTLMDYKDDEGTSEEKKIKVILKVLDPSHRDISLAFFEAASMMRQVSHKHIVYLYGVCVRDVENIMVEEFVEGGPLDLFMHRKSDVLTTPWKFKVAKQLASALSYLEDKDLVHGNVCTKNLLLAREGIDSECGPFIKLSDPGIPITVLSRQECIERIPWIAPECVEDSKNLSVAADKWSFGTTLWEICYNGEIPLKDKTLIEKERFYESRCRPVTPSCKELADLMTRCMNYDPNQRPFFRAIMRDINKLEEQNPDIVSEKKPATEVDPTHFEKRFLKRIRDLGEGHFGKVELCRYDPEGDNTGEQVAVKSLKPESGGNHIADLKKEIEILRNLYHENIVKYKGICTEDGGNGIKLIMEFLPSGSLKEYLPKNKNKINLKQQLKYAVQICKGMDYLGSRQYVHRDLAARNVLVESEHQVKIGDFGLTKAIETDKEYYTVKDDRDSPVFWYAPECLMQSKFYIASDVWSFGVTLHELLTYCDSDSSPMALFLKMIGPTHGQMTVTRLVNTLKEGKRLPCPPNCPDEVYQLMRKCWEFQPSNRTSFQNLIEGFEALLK
Method in brief: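 Radiometric filter-binding assay: human JAK1 incubated 40 min at room temperature in 20 mM Tris/HCl pH 7.5, 0.2 mM EDTA, 500 μM peptide substrate, 10 mM Mg acetate, with [γ-33P]ATP at 10 μM or KM. Reaction stopped with phosphoric acid; P30 filtermat scintillation counting.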

T1 sequence (O60674 whole entry): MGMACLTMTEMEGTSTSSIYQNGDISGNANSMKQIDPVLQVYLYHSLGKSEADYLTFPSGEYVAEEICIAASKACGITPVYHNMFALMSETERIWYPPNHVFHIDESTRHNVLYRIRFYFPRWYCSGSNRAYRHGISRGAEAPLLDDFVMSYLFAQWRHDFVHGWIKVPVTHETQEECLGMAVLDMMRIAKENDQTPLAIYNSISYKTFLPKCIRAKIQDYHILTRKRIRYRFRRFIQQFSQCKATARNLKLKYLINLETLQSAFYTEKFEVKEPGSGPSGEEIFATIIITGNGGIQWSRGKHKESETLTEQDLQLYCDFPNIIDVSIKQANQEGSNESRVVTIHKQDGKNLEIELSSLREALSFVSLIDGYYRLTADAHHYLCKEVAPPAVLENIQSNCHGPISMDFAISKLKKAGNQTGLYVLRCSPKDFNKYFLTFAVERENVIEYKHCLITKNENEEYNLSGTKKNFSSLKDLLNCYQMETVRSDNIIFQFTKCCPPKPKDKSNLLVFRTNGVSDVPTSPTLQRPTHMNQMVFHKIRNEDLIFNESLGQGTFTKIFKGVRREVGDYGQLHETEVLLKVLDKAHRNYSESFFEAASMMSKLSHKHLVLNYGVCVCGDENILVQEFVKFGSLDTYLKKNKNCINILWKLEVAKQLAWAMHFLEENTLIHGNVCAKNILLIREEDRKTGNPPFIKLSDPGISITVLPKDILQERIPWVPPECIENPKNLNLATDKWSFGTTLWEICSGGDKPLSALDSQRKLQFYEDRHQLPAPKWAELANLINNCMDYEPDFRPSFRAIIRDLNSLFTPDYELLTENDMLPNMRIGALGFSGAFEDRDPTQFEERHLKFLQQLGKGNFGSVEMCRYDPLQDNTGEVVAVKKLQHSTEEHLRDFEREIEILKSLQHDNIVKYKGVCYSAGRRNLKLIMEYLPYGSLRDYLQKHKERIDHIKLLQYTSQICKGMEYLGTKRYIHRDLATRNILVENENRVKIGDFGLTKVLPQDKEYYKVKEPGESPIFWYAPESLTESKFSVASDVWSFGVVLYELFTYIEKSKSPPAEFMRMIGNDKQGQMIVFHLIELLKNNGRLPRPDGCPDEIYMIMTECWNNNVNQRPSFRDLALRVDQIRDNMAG

SMILES	IC50 (JAK2 (h)) [nM]	half-life at 5 μM [1] [h]	CLint scaled at 5 μM [1] [mL/min/kg]	IC50 (JAK1 (h)) [nM]
CC(C)(O)Cc1nc2cc(Nc3ncc(Cl)c(NC4CCN(c5ccc(C#N)nn5)CC4)n3)ccn2n1 [Example 77, 6-(4-((5-chloro-2-((2-(2-hydroxy-2-methylpropyl)-[1,2,4]triazolo[1,5-a]pyridin-7-yl)amino)pyrimidin-4-yl)amino)piperidin-1-yl)pyridazine-3-carbonitrile]	17	4.28	6.8	0.7
CC(C)(O)Cc1nc2cc(Nc3ncc(Cl)c(NC4CCN(c5ccc(C#N)cn5)CC4)n3)ccn2n1 [Example 78, 6-(4-((5-chloro-2-((2-(2-hydroxy-2-methylpropyl)-[1,2,4]triazolo[1,5-a]pyridin-7-yl)amino)pyrimidin-4-yl)amino)piperidin-1-yl)nicotinonitrile]	10	0.588	49.3	1
CC(C)(O)Cc1nc2ccc(Nc3ncc(Cl)c(NC4CCN(c5ccc(C#N)nn5)CC4)n3)cn2n1 [Example 79, 6-(4-((5-chloro-2-((2-(2-hydroxy-2-methylpropyl)-[1,2,4]triazolo[1,5-a]pyridin-6-yl)amino)pyrimidin-4-yl)amino)piperidin-1-yl)pyridazine-3-carbonitrile]	102	3.27	8.9	1

Now those with a lower IC50 (JAK2 (h)), led by results:

IC50 (JAK2 (h)) [nM]	half-life at 5 μM [1] [h]	CLint scaled at 5 μM [1] [mL/min/kg]	IC50 (JAK1 (h)) [nM]	SMILES
5	0.7	41.3	1	CC(C)(O)Cc1cn2cc(Nc3ncc(Cl)c(NC4CCN(c5ccc(C#N)cn5)CC4)n3)ccc2n1 [Example 73, 6-(4-((5-chloro-2-((2-(2-hydroxy-2-methylpropyl)imidazo[1,2-a]pyridin-6-yl)amino)pyrimidin-4-yl)amino)piperidin-1-yl)nicotinonitrile]
4	> 1	–	0.7	CC(C)(O)Cc1nnc2cc(Nc3ncc(Cl)c(NC4CCN(c5ccc(C#N)cn5)CC4)n3)ccn12 [Example 74, 6-(4-((5-chloro-2-((3-(2-hydroxy-2-methylpropyl)-[1,2,4]triazolo[4,3-a]pyridin-7-yl)amino)pyrimidin-4-yl)amino)piperidin-1-yl)nicotinonitrile]
8	> 1	–	1	CC(C)(O)Cc1nnc2cc(Nc3ncc(Cl)c(NC4CCN(c5ccc(C#N)nn5)CC4)n3)ccn12 [Example 75, 6-(4-((5-chloro-2-((3-(2-hydroxy-2-methylpropyl)-[1,2,4]triazolo[4,3-a]pyridin-7-yl)amino)pyrimidin-4-yl)amino)piperidin-1-yl)pyridazine-3-carbonitrile]
